{
  "source": "paper PMC10892375",
  "about": "“Determination of the Cannabinoid CB1 Receptor’s Positive Allosteric Modulator Binding Site through Mutagenesis Studies” (Pharmaceuticals, 2024)",
  "format_in_all_cases": "cell-based",
  "key": {"hCB1 mutant I245A^4.54": {"biological_target": "T1, hCB1 mutant I245A^4.54 (Homo sapiens, UniProt P21554, I245A)", "T1 construct": "expressed in transfected cells; host or cells: HEK293", "T1 sequence (P21554 whole entry I245A)": "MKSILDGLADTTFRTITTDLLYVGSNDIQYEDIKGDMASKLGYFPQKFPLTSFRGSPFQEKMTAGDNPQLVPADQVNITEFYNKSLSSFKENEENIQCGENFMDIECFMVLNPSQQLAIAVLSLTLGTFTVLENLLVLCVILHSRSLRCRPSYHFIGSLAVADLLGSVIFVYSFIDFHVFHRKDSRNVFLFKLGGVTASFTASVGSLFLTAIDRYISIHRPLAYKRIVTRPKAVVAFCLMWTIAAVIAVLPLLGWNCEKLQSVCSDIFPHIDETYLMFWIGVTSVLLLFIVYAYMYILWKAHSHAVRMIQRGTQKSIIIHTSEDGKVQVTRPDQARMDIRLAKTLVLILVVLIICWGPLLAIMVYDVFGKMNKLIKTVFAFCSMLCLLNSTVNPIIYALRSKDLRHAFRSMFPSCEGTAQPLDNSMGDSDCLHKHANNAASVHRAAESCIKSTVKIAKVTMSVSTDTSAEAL", "assay": "pIRES G protein dissociation BRET assay, I245A mutant", "settings": "10 μM ligand alone", "protocol": "(§1) Mutagenesis studies using the pIRES G protein dissociation assay were performed using human embryonic kidney 293 (HEK293) wild-type cells transiently transfected with pplss-3HA-hCB1 [31] or modified receptor. All cells were cultured in Dulbecco’s Modified Eagle’s Medium (DMEM) supplemented with 10% fetal bovine serum (FBS), grown in […] vented-cap flasks, and maintained in a 37° C incubator at 5% CO2.\n(§2) Mutants of pplss-3HA-hCB1 (WT, pEF-V4-HisA (pEF4a) construct) were generated using a modified QuikChange® (Stratagene, San Diego, CA, USA) site-directed mutagenesis approach using KAPA HiFi Hotstart Polymerase (KAPA Biosystems, Roche, Basel, Switzerland). Briefly, single-stranded primers used to modify one or two base pairs within the target amino acid using PCR were purchased from Integrated DNA Technologies (IDT, Coralville, IA, USA). All pplss-hCB1 mutants were generated using the pplss-3HA-hCB1 pEF4a as parental DNA. PCR products were generated using recommended cycling conditions and treated with Dpn1 (New England Biolabs, Ipswich, MA, USA) overnight at 37° C to digest methylated parental DNA. PCR products were electrophoresed and run on an agarose gel (1% (w.v^−1) agarose, HydraGene, Piscataway, NJ, USA) containing 0.25 μg/mL ethidium bromide (Sigma-Aldrich, St. Louis, MO, USA). Gels were run in 40 mM TRIS-acetate buffer containing […] (pH 8.3) at 100 V for 30 min, maximum current and included a 1kb+ DNA ladder (Invitrogen, Thermo Fisher Scientific, Carlsbad, CA, USA) for reference. Gels were imaged using an UVTech Alliance Q9 Mini transilluminator (UVTech Alliance, Cambridge, UK). Digested products were then used to transform NEB 5α competent E. coli cells in accordance with manufacturer’s instructions. Briefly, transformed PCR products were grown overnight on 8.5 mL Luria Broth agar plates (containing 100 μg/mL ampicillin) at 37° C. Single bacterial colonies were picked and inoculated in Luria Broth (containing 100 μg/mL ampicillin) and grown overnight in a shaking incubator at 37° C. Plasmids were then harvested and purified using a Qiagen miniprep kit (Qiagen, Hilden, Germany) and validated using sequencing (Genetics Analysis Service, University of Otago, Dunedin, New Zealand).\n(§3) Dissociation of the G protein heterotrimer, specifically Gαi1, Gβ1, and Gγ2, was investigated using a bioluminescence resonance energy transfer (BRET) assay with the pIRES biosensor first described by and adapted by.\n(§4) Briefly, 3 × 10^6 WT HEK293 cells were seeded into 10 cm culture dishes (Corning, Corning, NY, USA; one dish for the control receptor and one for each modified receptor) and incubated at 37 °C for 24 h to gain 50–60% confluency. Culture medium was then replaced and transfection mixtures containing 3 μg pIRES vector and 1 μg receptor (either pplss-hCB1 or modified receptor) were prepared (4 μg total DNA). Plasmids were initially diluted in sterile Milli-Q water before being diluted in OptiMEM reduced serum medium (Thermo Fisher Scientific, Waltham, MA, USA) and combined with […] polyethylenimine (PEI)-max (1:9 DNA:PEI-max ratio) and incubated at room temperature for 20 min. Transfection mixtures were then added to cells via dropwise addition, and cells were incubated at 37 °C for 24 h. Transfected cells were lifted and plated at 50,000 cells/well into poly-d-lysine (PDL; Sigma-Aldrich) coated white 96-well CulturPlates (PerkinElmer, Waltham, MA, USA) and incubated for a further 24 h at 37 °C.\n(§5) To assay, the culture medium was aspirated and cells were washed with phosphate buffered saline (PBS) and replaced with BRET assay medium (phenol red free DMEM containing 25 mM HEPES and supplemented with 1 mg/mL bovine serum albumin; BSA, MP Biomedicals, Auckland, New Zealand) for 30 min prior to drug addition (serum starve). Drugs were prepared at 10 × concentration in BRET assay medium, combined in a polypropylene V-bottom plate, and incubated at 37° C prior to drug stimulation."}, "hCB1 mutant L404A^8.50": {"biological_target": "T2, hCB1 mutant L404A^8.50 (Homo sapiens, UniProt P21554, L404A)", "T2 construct": "expressed in transfected cells; host or cells: HEK293", "T2 sequence (P21554 whole entry L404A)": "as the sequence (P21554 whole entry I245A) above, with A245I, L404A counted along it", "assay": "pIRES G protein dissociation BRET assay, L404A mutant", "settings": "10 μM ligand alone", "protocol": "as §1, §2, §3, §4, §5"}, "hCB1 mutant S173A^2.60": {"biological_target": "T3, hCB1 mutant S173A^2.60 (Homo sapiens, UniProt P21554, S173A)", "T3 construct": "expressed in transfected cells; host or cells: HEK293", "T3 sequence (P21554 whole entry S173A)": "as the sequence (P21554 whole entry I245A) above, with S173A, A245I counted along it", "assay": "pIRES G protein dissociation BRET assay, S173A mutant", "settings": "10 μM ligand alone", "protocol": "as §1, §2, §3, §4, §5"}, "hCB1 mutant K232A^4.41": {"biological_target": "T4, hCB1 mutant K232A^4.41 (Homo sapiens, UniProt P21554, K232A)", "T4 construct": "expressed in transfected cells; host or cells: HEK293", "T4 sequence (P21554 whole entry K232A)": "as the sequence (P21554 whole entry I245A) above, with K232A, A245I counted along it", "assay": "pIRES G protein dissociation BRET assay, K232A mutant", "settings": "10 μM ligand alone", "protocol": "as §1, §2, §3, §4, §5"}, "hCB1 mutant H154A^2.41": {"biological_target": "T5, hCB1 mutant H154A^2.41 (Homo sapiens, UniProt P21554, H154A)", "T5 construct": "expressed in transfected cells; host or cells: HEK293", "T5 sequence (P21554 whole entry H154A)": "as the sequence (P21554 whole entry I245A) above, with H154A, A245I counted along it", "assay": "pIRES G protein dissociation BRET assay, H154A mutant", "settings": "10 μM ligand alone", "protocol": "as §1, §2, §3, §4, §5"}, "hCB1 mutant F289A^5.53": {"biological_target": "T6, hCB1 mutant F289A^5.53 (Homo sapiens, UniProt P21554, F289A)", "T6 construct": "expressed in transfected cells; host or cells: HEK293", "T6 sequence (P21554 whole entry F289A)": "as the sequence (P21554 whole entry I245A) above, with A245I, F289A counted along it", "assay": "pIRES G protein dissociation BRET assay, F289A mutant", "settings": "10 μM ligand alone", "protocol": "as §1, §2, §3, §4, §5"}, "hCB1 mutant R220A^3.56": {"biological_target": "T7, hCB1 mutant R220A^3.56 (Homo sapiens, UniProt P21554, R220A)", "T7 construct": "expressed in transfected cells; host or cells: HEK293", "T7 sequence (P21554 whole entry R220A)": "as the sequence (P21554 whole entry I245A) above, with R220A, A245I counted along it", "assay": "pIRES G protein dissociation BRET assay, R220A mutant", "settings": "10 μM ligand alone", "protocol": "as §1, §2, §3, §4, §5"}, "hCB1 mutant I169A^2.56": {"biological_target": "T8, hCB1 mutant I169A^2.56 (Homo sapiens, UniProt P21554, I169A)", "T8 construct": "expressed in transfected cells; host or cells: HEK293", "T8 sequence (P21554 whole entry I169A)": "as the sequence (P21554 whole entry I245A) above, with I169A, A245I counted along it", "assay": "pIRES G protein dissociation BRET assay, I169A mutant", "protocol": "as §1, §2, §3, §4, §5"}, "hCB1 mutant F408A^8.54": {"biological_target": "T9, hCB1 mutant F408A^8.54 (Homo sapiens, UniProt P21554, F408A)", "T9 construct": "expressed in transfected cells; host or cells: HEK293", "T9 sequence (P21554 whole entry F408A)": "as the sequence (P21554 whole entry I245A) above, with A245I, F408A counted along it", "assay": "pIRES G protein dissociation BRET assay, F408A mutant", "settings": "10 μM ligand alone", "protocol": "as §1, §2, §3, §4, §5"}, "hCB1 mutant L209A^3.45": {"biological_target": "T10, hCB1 mutant L209A^3.45 (Homo sapiens, UniProt P21554, L209A)", "T10 construct": "expressed in transfected cells; host or cells: HEK293", "T10 sequence (P21554 whole entry L209A)": "as the sequence (P21554 whole entry I245A) above, with L209A, A245I counted along it", "assay": "pIRES G protein dissociation BRET assay, L209A mutant", "settings": "10 μM ligand alone", "protocol": "as §1, §2, §3, §4\nTo assay, the culture medium was aspirated and cells were washed with phosphate buffered saline (PBS) and replaced with BRET assay medium (phenol red free DMEM containing 25 mM HEPES and supplemented with 1 mg/mL bovine serum albumin; BSA, MP Biomedicals, Auckland, New Zealand) for 30 min prior to drug addition (serum starve). Drugs were prepared at 10 × concentration in BRET assay medium, combined in a polypropylene V-bottom plate, and incubated at 37° C prior to drug stimulation. […]"}, "hCB1 mutant R148A^12.51": {"biological_target": "T11, hCB1 mutant R148A^12.51 (Homo sapiens, UniProt P21554, R148A)", "T11 construct": "expressed in transfected cells; host or cells: HEK293", "T11 sequence (P21554 whole entry R148A)": "as the sequence (P21554 whole entry I245A) above, with R148A, A245I counted along it", "assay": "pIRES G protein dissociation BRET assay, R148A mutant", "settings": "10 μM ligand alone", "protocol": "as §1, §2, §3, §4, §5"}},
  "note": "“Also recorded” adds a separate entry of the source.",
  "data": [
    {"molecule": "Cc1ccc2c(C(C[N+](=O)[O-])c3cccs3)c(-c3ccccc3)[nH]c2c1", "note": "(stereo not shown) [ZCZ011, 6-Methyl-3-(2-nitro-1-(thiophen-2-yl)ethyl)-2-phenyl-1 H-indole]", "values": [
      {"measurement": "G protein dissociation, AUC of 10 μM compound (maximal response)", "setting": "hCB1 mutant I245A^4.54", "result": "−130.4 ± 12.9"},
      {"measurement": "G protein dissociation, AUC of 10 μM compound (maximal response)", "setting": "hCB1 mutant L404A^8.50", "result": "−85.2 ± 7.3"},
      {"measurement": "G protein dissociation, AUC of 10 μM compound (maximal response)", "setting": "hCB1 mutant S173A^2.60", "result": "−144.2 ± 6.8"},
      {"measurement": "G protein dissociation, AUC of 10 μM compound (maximal response)", "setting": "hCB1 mutant K232A^4.41", "result": "−140.0 ± 7.3"},
      {"measurement": "G protein dissociation, AUC of 10 μM compound (maximal response)", "setting": "hCB1 mutant H154A^2.41", "result": "−129.4 ± 5.1"},
      {"measurement": "G protein dissociation, AUC of 10 μM compound (maximal response)", "setting": "hCB1 mutant F289A^5.53", "result": "−135.5 ± 6.3"},
      {"measurement": "G protein dissociation, AUC of 10 μM compound (maximal response)", "setting": "hCB1 mutant R220A^3.56", "result": "−95.7 ± 7.7"},
      {"measurement": "Allosteric modulation of CP55940 (PAM activity)", "setting": "hCB1 mutant I169A^2.56; 10 μM allosteric ligand, result in words", "result": "neither allosteric ligand acted as a PAM"},
      {"measurement": "G protein dissociation, AUC of 10 μM compound (maximal response)", "setting": "hCB1 mutant I169A^2.56; 10 μM ligand alone", "result": "−20.0 ± 9.0"},
      {"measurement": "Allosteric agonism: G protein dissociation in the absence of an orthosteric ligand", "setting": "hCB1 mutant I169A^2.56; 10 μM, result in words", "result": "abolished; also recorded: substantial reduction in G protein dissociation"},
      {"measurement": "G protein dissociation, AUC of 10 μM compound (maximal response)", "setting": "hCB1 mutant F408A^8.54", "result": "−116.9 ± 10.1"},
      {"measurement": "G protein dissociation, AUC of 10 μM compound (maximal response)", "setting": "hCB1 mutant L209A^3.45", "result": "−34.4 ± 2.9"},
      {"measurement": "G protein dissociation, AUC of 10 μM compound (maximal response)", "setting": "hCB1 mutant R148A^12.51", "result": "−150.1 ± 10.2"}
    ]}
  ]
}
